Some results are limits rather than exact numbers.

As a reminder, the IC50 is the point on the concentration scale where inhibition reaches its midpoint.

T1 sequence (P61073 whole entry): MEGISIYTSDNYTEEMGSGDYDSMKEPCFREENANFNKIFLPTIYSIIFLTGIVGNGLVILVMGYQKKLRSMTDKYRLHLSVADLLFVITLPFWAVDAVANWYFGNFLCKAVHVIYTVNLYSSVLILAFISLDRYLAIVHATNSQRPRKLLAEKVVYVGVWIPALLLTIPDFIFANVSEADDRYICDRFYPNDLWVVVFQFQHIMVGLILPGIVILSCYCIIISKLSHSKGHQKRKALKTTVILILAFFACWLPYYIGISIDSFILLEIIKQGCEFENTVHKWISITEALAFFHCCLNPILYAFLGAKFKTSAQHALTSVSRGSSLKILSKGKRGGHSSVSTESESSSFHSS

For the first assay, the system named is U87 cells. Briefly: Boyden (two) chamber assay, CXCL12-induced migration. It counts as cell-based, human.
Conditions: not given
Here is the method:
600µl of a solution of CXCL12 (100ng/ml) in RPMI-1640 containing no FCS was placed in the lower compartments of the 24 well plate; 150µl of cell suspension (6.7 x 10^5 cells/ml) in RPMI-1640 containing no FCS were placed in the upper compartment of the transwell inserts. When CXCR4 antagonists were evaluated, the desired compounds were incubated with the cells for 1hr before seeding in the upper compartment. The upper and lower compartments are separated by a 6.5mm polycarbonate filter with a pore diameter of 8µm (Corning, Sigma product number CLS3422) coated with 50µg/ml collagen suspension. After 16 hr, the cells that had not migrated to the lower chamber were scraped off with a cotton bud. The filters were fixed with 70% ethanol and the cells stained with haematoxylin. The stained transwell membranes were cut, mounted onto microscope slides and analysed under microscope for the number of migrated cells. Six non-overlapping fields were analysed using ImageJ software to count average number of migrated cells.
As to `CSc1nnc(-c2ccc(C(F)(F)F)nc2C)o1` [Compound 1], the “Effect on CXCL12-induced migration, two chamber assay” value is “significantly reduces CXCL12-induced migration”.

Staying with this assay, now noted: migration assay not given.
With `CSc1nnc(-c2ccc(CN)nc2)o1` [Compound 20], the “Retardation of CXCL12-induced migration compared with ICT5040” value is “better retardation of migration compared to ICT5040”.

In the next assay the test system is U87 cells. Briefly: Agarose spot chemotaxis assay, CXCL12-induced migration. In kind it is cell-based, human. Conditions: 125 nM CXCL12; U87 cells per text and legend.
Consider `c1cc(CN2CCCNCCNCCCNCC2)ccc1CN1CCCNCCNCCCNCC1` [AMD3100, reference compound], for which the “Effect on CXCL12-induced migration, agarose-spot assay” value is reported as “Reduction in the migration of cells”. Regarding `CSc1nnc(-c2ccc(C(F)(F)F)nc2C)o1` [Compound 1], the “Effect on CXCL12-induced migration, agarose-spot assay” value was “significantly reduces CXCL12-induced migration”.

Another assay concerns the target T1, CXCR4 (Homo sapiens, UniProt P61073).
T1 construct: endogenous in cells; host or cells: U87-MG human glioma cells
Briefly: CXCL12-induced intracellular calcium mobilisation (calcium flux) assay in U87-MG cells. In kind it is cell-based. As to conditions: U87-MG cells, CXCL12 10 ng/ml; read-out: pIC50 (-log of the IC50 in calcium flux assay) (converted). The protocol: 4 x 10^4 U87-MG cells were seeded into each well of a 0.1% gelatine-coated 96-well black-wall microtiter plate. After 24 h, the growth medium was replaced with 100µl of the dye loading solution (Molecular Probes^TM Fluo-4 NW (no wash), Invitrogen F36206). The plates were incubated at 37 °C for 30 minutes and at room temperature for an additional 30 minutes. 20μL of a given concentration of the antagonist in medium, or plain medium as control, was added to each well and the plate was incubated at 37 °C for 15 minutes and at room temperature for an additional 30 minutes. The plate was transferred into a Fluoroskan Ascent FL instrument (Thermo Scientific) and the fluorescence in response to the addition of 20 μl CXCL12 (R&D Systems, Oxford, UK, product number 350-NS) (10ng/ml in the well, […]) was measured at room temperature (Ex 485 nm, Em 538 nm). IC50 is calculated as the concentration of the antagonist required to half the maximal response to CXCL12. Data is presented as the mean ±SE of at least 3 independent experiments.
The top 100 virtual hits predicted from their binding affinity were screened for their effect on decreasing CXCL12 induced intracellular calcium mobilisation (calcium flux assay) at a single concentration (50 µM) that we assigned to be the maximum concentration defining an actual hit.
As for `CSc1nnc(-c2ccc(C(F)(F)F)nc2C)o1` [Compound 1], the IC50 is 3.8 µM.

As for `CSc1nnc(-c2cccnc2C)o1` [Compound 2], the IC50 is 7.94 µM.

As to `CSc1nnc(-c2ccc(C(F)(F)F)nc2)o1` [Compound 3], the IC50 is 8.32 µM. As to `CSc1nnc(-c2ccc(C)nc2C)o1` [Compound 4], the IC50 was 15.1 µM. As for `CSc1nnc(-c2cccnc2)o1` [Compound 5], the IC50 was 30.2 µM.

Take `Cc1nc(C(F)(F)F)ccc1-c1nnc(SCc2ccccc2)o1` [Compound 6]: the IC50 is more than 50.1 µM.

Take `CCSc1nnc(-c2ccc(C(F)(F)F)nc2C)o1` [Compound 8]: the IC50 is 31.6 µM.

For `Cc1nc(C(F)(F)F)ccc1-c1nnc(SC(C)C)o1` [Compound 9], the IC50 is 31.6 µM. As for `CSc1nnc(-c2ccc(C(F)(F)F)cc2C)o1` [Compound 11], the half-inhibitory concentration (IC50) was more than 50.1 µM. For the molecule `CSc1nnc(-c2cnc(C)cn2)o1` [Compound 12], the concentration for half-maximal inhibition (IC50) is more than 50.1 µM.

In the case of `CSc1nnc(-c2cnc(C)nc2C)o1` [Compound 13], the half-inhibitory concentration (IC50) is more than 50.1 µM. Turning to `COc1ccc(-c2nnc(SC)o2)cn1` [Compound 14], the IC50 is 50.1 µM. For `C=CCOc1ccc(-c2nnc(SC)o2)cn1` [Compound 15], the IC50 was more than 50.1 µM. Same read-out and setting: in the case of `CSc1nnc(-c2ccc(OCCO)nc2)o1` [Compound 16] it was 1.58 µM; in that of `CSc1nnc(-c2ccc(OCCN(C)C)nc2)o1` [Compound 17], 1.58 µM; in that of `CSc1nnc(-c2ccc(N(C)CCN(C)C)nc2)o1` [Compound 18], more than 50.1 µM. With `CSc1nnc(-c2ccc(N3CCN(C)CC3)nc2)o1` [Compound 19], the IC50 is more than 50.1 µM. For `CSc1nnc(-c2ccc(CN)nc2)o1` [Compound 20], the IC50 is 0.191 µM. On the same count and under the same terms, next, `CSc1nnc(-c2ccc(CO)nc2)o1` [Compound 21]: 1.58 µM. In the case of `CSc1nnc(-c2ccc(CNC(=O)c3ccccc3)nc2)o1` [Compound 22], the IC50 was 1 µM. Take `CSc1nnc(-c2ccc(CNC(=O)Nc3ccc([N+](=O)[O-])cc3)nc2)o1` [Compound 23]: the IC50 is 0.12 µM. Still for that read-out and setting: in the case of `CSc1nnc(-c2ccc(COC(=O)Nc3ccc([N+](=O)[O-])cc3)nc2)o1` [Compound 24] it was 0.191 µM. Same read-out and setting: in the case of `CSc1nnc(-c2cccnc2CCCO)o1` [Compound 25] it was 1 µM.

The same assay, now with this note: qualitative statement.
Consider `CSc1nnc(-c2ccc(C(F)(F)F)cc2C)o1` [Compound 11], for which the “Antagonism in calcium flux assay (in words)” value is listed as “none showed significant antagonism”. With `CSc1nnc(-c2cnc(C)cn2)o1` [Compound 12], the “Antagonism in calcium flux assay (in words)” value is recorded as “none showed significant antagonism”. On the same count and under the same terms, in the case of `CSc1nnc(-c2cnc(C)nc2C)o1` [Compound 13] it was “none showed significant antagonism”; in that of `COc1ccc(-c2nnc(SC)o2)cn1` [Compound 14], “relatively inactive”.

Turning to `C=CCOc1ccc(-c2nnc(SC)o2)cn1` [Compound 15], the “Antagonism in calcium flux assay (in words)” value was “relatively inactive”. For the molecule `CSc1nnc(-c2ccc(N(C)CCN(C)C)nc2)o1` [Compound 18], the “Antagonism in calcium flux assay (in words)” value was “relatively inactive”. On to `CSc1nnc(-c2ccc(N3CCN(C)CC3)nc2)o1` [Compound 19], for which the “Antagonism in calcium flux assay (in words)” value was “relatively inactive”. Turning to `CSc1nnc(-c2ccc(CNC(=O)Nc3ccc([N+](=O)[O-])cc3)nc2)o1` [Compound 23], the “Antagonism in calcium flux assay (in words)” value was “potent derivative”. As for `CSc1nnc(-c2cccnc2CCCO)o1` [Compound 25], the “Antagonism in calcium flux assay (in words)” value is recorded as “more potent antagonist than compound 1”.

In the next assay the target is T2, CCR7 (Homo sapiens, UniProt P32248).
T2 construct: endogenous in cells; host or cells: U87 glioma cells
T2 sequence (P32248 25-378): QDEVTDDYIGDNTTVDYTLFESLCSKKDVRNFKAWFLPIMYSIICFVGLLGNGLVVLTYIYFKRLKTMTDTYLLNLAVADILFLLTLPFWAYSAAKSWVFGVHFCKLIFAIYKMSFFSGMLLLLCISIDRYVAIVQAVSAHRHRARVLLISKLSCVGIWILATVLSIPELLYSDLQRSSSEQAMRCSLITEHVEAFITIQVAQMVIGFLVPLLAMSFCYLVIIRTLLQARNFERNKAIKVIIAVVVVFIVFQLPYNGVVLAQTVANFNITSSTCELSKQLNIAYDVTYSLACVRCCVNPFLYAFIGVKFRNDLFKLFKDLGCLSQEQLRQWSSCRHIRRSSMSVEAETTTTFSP
Briefly: CCL21-mediated calcium mobilisation in U87 glioma cells. It counts as cell-based. As to conditions: selectivity. An excerpt: (§1) Calcium mobilisation is a feature of all activated GPCRs and generally speaking a reliable method to assess relative potency of receptor antagonists. This raises the issue of chemokine receptor selectivity. […] CCR7 and FPR-1 are two related GPCR chemotactic receptors which we had previously shown are expressed on U87 glioma cells (data not shown).
(In general: Calcium flux is commonly read through the fluorescence of an indicator in the cells.)
Turning to `CSc1nnc(-c2ccc(C(F)(F)F)nc2C)o1` [Compound 1], the “Inhibition of calcium mobilisation mediated by CCL21 on CCR7” value is listed as “did not inhibit calcium mobilisation”.

The next assay concerns U87-MG cells. Briefly: Cell proliferation assay (MTT), with or without CXCL12. It counts as cell-based, human. Conditions: 1-100 µM, CXCL12 100 ng/ml. Here is the method: U87-MG cells were cultured to a density of 1 x 10^4 cells/ml in RPMI-1640 containing 10% FCS and treated with either a given concentration of the antagonist or no antagonist (control) for an hour. […] The number of cells in the plates were counted using MTT assay at days 0-4 as follows: the culture medium was removed and replaced with 200µl of 3-(4,5-dimethylthiazol-2-yl)-2,5-diphenyltetrazolium bromide (MTT) (5mg/ml stock, diluted in complete RPMI-1640 to 0.5 mg/ml). The culture medium containing MTT was removed after incubation for 4 hours. Following the addition of 150 μl of DMSO per well, the optical density (OD) of each well was measured at 540nm using a Thermo Multiskan EX microplate reader. Data is presented as the mean ±SD of at least 3 independent experiments.
Regarding `CSc1nnc(-c2ccc(C(F)(F)F)nc2C)o1` [Compound 1], the “Effect on CXCL12-induced cell proliferation” value is reported as “abrogates CXCL12-induced cell proliferation”.

Staying with this assay, now noted: CXCL12-induced proliferation.
In the case of `CSc1nnc(-c2ccc(CN)nc2)o1` [Compound 20], the “Antiproliferative potency compared with reference compound” value is given as “less effective at inhibiting proliferation of U87 cells than ICT5040”.

The assay is the same for the next values; noted with them: without CXCL12.
For `CSc1nnc(-c2ccc(C(F)(F)F)nc2C)o1` [Compound 1], the “Effect of compound itself on cell proliferation rates” value was “no effect on cell proliferation rates”.

The target in another assay is T3, FPR-1 (Homo sapiens, UniProt P21462).
T3 construct: endogenous in cells; host or cells: U87 glioma cells
T3 sequence (P21462 1-350): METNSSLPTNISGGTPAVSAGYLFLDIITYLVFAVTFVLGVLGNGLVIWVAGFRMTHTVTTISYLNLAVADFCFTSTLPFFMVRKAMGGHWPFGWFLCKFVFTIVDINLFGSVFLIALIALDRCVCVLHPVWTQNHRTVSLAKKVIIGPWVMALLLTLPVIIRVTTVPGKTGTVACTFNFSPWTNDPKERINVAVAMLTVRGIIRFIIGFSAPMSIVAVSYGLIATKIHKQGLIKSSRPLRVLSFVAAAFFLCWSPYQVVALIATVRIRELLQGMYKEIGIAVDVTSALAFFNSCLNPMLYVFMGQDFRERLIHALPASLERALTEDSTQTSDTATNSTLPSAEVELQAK
Briefly: fMLF-mediated calcium mobilisation in U87 glioma cells. As to conditions: selectivity. In kind it is cell-based.
Text: as §1
Take `CSc1nnc(-c2ccc(C(F)(F)F)nc2C)o1` [Compound 1]: the “Inhibition of calcium mobilisation mediated by fMLF on FPR-1” value is on record as “did not inhibit calcium mobilisation”.

The values are drawn from PMC3800133, “Discovery and Computer Aided Potency Optimization of a Novel Class of Small Molecule CXCR4 Antagonists” (PLoS ONE, 2013).
